Test results published in patent publication US8586747B2, “3,3-dimethyl tetrahydroquinoline derivatives” (Hoffmann-La Roche Inc., priority 2010, dated 2013).
Blank lines part the entries; values can stand above or below the compound they belong to.

Test system: AMP-activated protein kinase (AMPK)
Test: ADP Quest assay for AMPK activators
Assay type: biochemical
Parameters: key: fold AMPK activation with vs without activator at 30 µM
Settings: fold of AMPK activation to phosphorylate SAMS peptide without and with an activator at the concentration of 30 µM
How it was run: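 AMPK phosphorylation of SAMS peptide with ATP monitored kinetically at room temperature by ADP Quest fluorescence (ex 530/em 590 nm), reaction started with enzyme. Compounds tested […] in 2-fold dilutions, AMP as reference. E30 is fold activation at 30 µM activator versus none.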

E30: 1.58
Structure (SMILES): CC1(C)Cc2cc(C(=O)O)ccc2NC1c1cccc(C(N)=O)c1 (stereo not shown) [Example 200, 2-(3-Carbamoylphenyl)-3,3-dimethyl-1,2,3,4-tetrahydroquinoline-6-carboxylic acid]

E30: 1.42
Structure (SMILES): CC1(C)Cc2cc(C(=O)O)ccc2NC1c1cccc(NS(C)(=O)=O)c1 (stereo not shown) [Example 201, 3,3-Dimethyl-2-(3-(methylsulfonamido)phenyl)-1,2,3,4-tetrahydroquinoline-6-carboxylic acid]

E30: 1.4
Structure (SMILES): CC(=O)Nc1cccc(C2Nc3ccc(C(=O)O)cc3CC2(C)C)c1 (stereo not shown) [Example 204, 2-(3-Acetamidophenyl)-3,3-dimethyl-1,2,3,4-tetrahydroquinoline-6-carboxylic acid]

E30: 1.33
Structure (SMILES): CC1(C)Cc2cc(C(=O)O)ccc2NC1c1ccc(F)c(NS(=O)(=O)c2cccc(F)c2)c1 (stereo not shown) [Example 206, 2-(4-Fluoro-3-(3-fluorophenylsulfonamido)phenyl)-3,3-dimethyl-1,2,3,4-tetrahydroquinoline-6-carboxylic acid]

E30: 1.28
Structure (SMILES): CC1(C)Cc2cc(C(=O)O)ccc2NC1c1ccc(F)c(NS(=O)(=O)c2ccccc2F)c1 (stereo not shown) [Example 209, 2-(4-Fluoro-3-(2-fluorophenylsulfonamido)phenyl)-,3-dimethyl-1,2,3,4-tetrahydroquinoline-6-carboxylic acid]

E30: 1.28
Structure (SMILES): CC1(C)Cc2cc(C(=O)O)ccc2NC1c1ccc(NS(=O)(=O)c2cccc(F)c2)cc1 (stereo not shown) [Example 212, 2-(4-(3-Fluorophenylsulfonamido)phenyl)-3,3-dimethyl-1,2,3,4-tetrahydroquinoline-6-carboxylic acid]

E30: 1.27
Structure (SMILES): CC1(C)Cc2cc(C(=O)O)ccc2NC1c1ccc(NS(=O)(=O)c2ccccc2F)cc1 (stereo not shown) [Example 213, 2-(4-(2-Fluorophenylsulfonamido)phenyl)-3,3-dimethyl-1,2,3,4-tetrahydroquinoline-6-carboxylic acid]

E30: 1.38
Structure (SMILES): CC1(C)Cc2cc(C(=O)O)ccc2NC1c1ccc(NC(=O)C2CCC2)cc1 (stereo not shown) [Example 215, 2-(4-(Cyclobutanecarboxamido)phenyl)-3,3-dimethyl-1,2,3,4-tetrahydroquinoline-6-carboxylic acid]

E30: 1.27
Structure (SMILES): CC1(C)Cc2cc(C(=O)O)ccc2NC1c1ccc(NC(=O)C2=CCCCC2)cc1 (stereo not shown) [Example 217, 2-(4-(Cyclohex-1-enecarboxamido)phenyl)-3,3-dimethyl-1,2,3,4-tetrahydroquinoline-6-carboxylic acid]

E30: 2.53
Structure (SMILES): CC1(C)Cc2cc(C(=O)O)ccc2NC1c1ccccc1NS(=O)(=O)c1ccc(F)cc1 (stereo not shown) [Example 218, 2-(2-(4-Fluorophenylsulfonamido)phenyl)-3,3-dimethyl-1,2,3,4-tetrahydroquinoline-6-carboxylic acid]

E30: 1.89
Structure (SMILES): CC1(C)Cc2cc(C(=O)O)ccc2NC1c1ccccc1NS(=O)(=O)c1ccccc1 (stereo not shown) [Example 220, 3,3-Dimethyl-2-(2-(phenylsulfonamido)phenyl)-1,2,3,4-tetrahydroquinoline-6-carboxylic acid]

E30: 1.33
Structure (SMILES): CC(C)NS(=O)(=O)c1cccc(C2Nc3ccc(C(=O)O)cc3CC2(C)C)c1 (stereo not shown) [Example 221, 2-(3-(N-isopropylsulfamoyl)phenyl)-3,3-dimethyl-1,2,3,4-tetrahydroquinoline-6-carboxylic acid]

E30: 2.09
Structure (SMILES): CC1(C)Cc2cc(C(=O)O)ccc2NC1c1ccccc1NS(=O)(=O)c1cccc(F)c1 (stereo not shown) [Example 222, 2-(2-(3-Fluorophenylsulfonamido)phenyl)-3,3-dimethyl-1,2,3,4-tetrahydroquinoline-6-carboxylic acid]

E30: 1.94
Structure (SMILES): CC1(C)Cc2cc(C(=O)O)ccc2NC1c1ccccc1NS(C)(=O)=O (stereo not shown) [Example 223, 3,3-Dimethyl-2-(2-(methylsulfonamido)phenyl)-1,2,3,4-tetrahydroquinoline-6-carboxylic acid]

E30: 1.32
Structure (SMILES): CNS(=O)(=O)c1ccc(C2Nc3ccc(C(=O)O)cc3CC2(C)C)cc1 (stereo not shown) [Example 226, 3,3-Dimethyl-2-(4-(N-methylsulfamoyl)phenyl)-1,2,3,4-tetrahydroquinoline-6-carboxylic acid]

E30: 1.2
Structure (SMILES): CC1(C)Cc2cc(C(=O)O)ccc2NC1c1cccc(S(=O)(=O)N2CCCC2)c1 (stereo not shown) [Example 227, 3,3-Dimethyl-2-(3-(pyrrolidin-1-ylsulfonyl)phenyl)-1,2,3,4-tetrahydroquinoline-6-carboxylic acid]

E30: 1.38
Structure (SMILES): CNS(=O)(=O)c1cccc(C2Nc3ccc(C(=O)O)cc3CC2(C)C)c1 (stereo not shown) [Example 228, 3,3-Dimethyl-2-(3-(N-methylsulfamoyl)phenyl)-1,2,3,4-tetrahydroquinoline-6-carboxylic acid]

E30: 1.33
Structure (SMILES): CN1CCC(NS(=O)(=O)c2cccc(C3Nc4ccc(C(=O)O)cc4CC3(C)C)c2)C1 (stereo not shown) [Example 229, 3,3-Dimethyl-2-(3-(N-(1-methylpyrrolidin-3-yl)sulfamoyl)phenyl)-1,2,3,4-tetrahydroquinoline-6-carboxylic acid]

E30: 1.27
Structure (SMILES): CC1(C)Cc2cc(C(=O)O)ccc2NC1c1cccc(S(=O)(=O)Nc2ccccc2)c1 (stereo not shown) [Example 230, 3,3-Dimethyl-2-(3-(N-phenylsulfamoyl)phenyl)-1,2,3,4-tetrahydroquinoline-6-carboxylic acid]

E30: 1.31
Structure (SMILES): CN(C)S(=O)(=O)c1cccc(C2Nc3ccc(C(=O)O)cc3CC2(C)C)c1 (stereo not shown) [Example 231, 2-(3-(N,N-dimethylsulfamoyl)phenyl)-3,3-dimethyl-1,2,3,4-tetrahydroquinoline-6-carboxylic acid]

The remaining lines, values behind:

Structure (SMILES): COC(=O)c1ccc2c(c1)CC(C)(C)C(c1cccc(C(=O)Nc3cnccn3)c1)N2 (stereo not shown) [Example 197, Methyl 3,3-dimethyl-2-(3-(pyrazin-2-ylcarbamoyl)-phenyl)-1,2,3,4-tetrahydroquinoline-6-carboxylate]
E30: 1.22

Structure (SMILES): CC1(C)Cc2cc(C(=O)O)ccc2NC1c1cc(Cl)cc(NC(=O)c2ccccc2)c1 (stereo not shown) [Example 202, 2-(3-Benzamido-5-chlorophenyl)-3,3-dimethyl-1,2,3,4-tetrahydroquinoline-6-carboxylic acid]
E30: 1.22

Structure (SMILES): CN(C)CCNC(=O)c1cccc(C2Nc3ccc(C(=O)O)cc3CC2(C)C)c1 (stereo not shown) [Example 203, 2-(3-(2-(Dimethylamino)ethylcarbamoyl)phenyl)-3,3-dimethyl-1,2,3,4-tetrahydroquinoline-6-carboxylic acid]
E30: 1.53

Structure (SMILES): CCN1CCCC1CNC(=O)c1cccc(C2Nc3ccc(C(=O)O)cc3CC2(C)C)c1 (stereo not shown) [Example 205, 2-(3-((1-Ethylpyrrolidin-2-yl)methylcarbamoyl)phenyl)-3,3-dimethyl-1,2,3,4-tetrahydroquinoline-6-carboxylic acid]
E30: 1.38

Structure (SMILES): CC(C)(C)OC(=O)N1CC(NC(=O)c2cccc(C3Nc4ccc(C(=O)O)cc4CC3(C)C)c2)C1 (stereo not shown) [Example 207, 2-(3-(1-(Tert-butoxycarbonyl)azetidin-3-ylcarbamoyl)phenyl)-3,3-dimethyl-1,2,3,4-tetrahydroquinoline-6-carboxylic acid]
E30: 1.32

Structure (SMILES): CN1CC(NC(=O)c2cccc(C3Nc4ccc(C(=O)O)cc4CC3(C)C)c2)C1 (stereo not shown) [Example 208, 3,3-Dimethyl-2-(3-(1-methylazetidin-3-ylcarbamoyl)phenyl)-1,2,3,4-tetrahydroquinoline-6-carboxylic acid]
E30: 1.3

Structure (SMILES): CC1(C)Cc2cc(C(=O)O)ccc2NC1c1ccc(F)c(NC(=O)C2CCCCC2)c1 (stereo not shown) [Example 211, 2-(3-(Cyclohexanecarboxamido)-4-fluorophenyl)-3,3-dimethyl-1,2,3,4-tetrahydroquinoline-6-carboxylic acid]
E30: 1.41

Structure (SMILES): CC1(C)Cc2cc(C(=O)O)ccc2NC1c1ccccc1NC(=O)C1CC1 (stereo not shown) [Example 214, 2-(2-(Cyclopropanecarboxamido)phenyl)-3,3-dimethyl-1,2,3,4-tetrahydroquinoline-6-carboxylic acid]
E30: 1.41

Structure (SMILES): CC1(C)Cc2cc(C(=O)O)ccc2NC1c1ccccc1NC(=O)C1CCC1 (stereo not shown) [Example 216, 2-(2-(Cyclobutanecarboxamido)phenyl)-3,3-dimethyl-1,2,3,4-tetrahydroquinoline-6-carboxylic acid]
E30: 1.36

Structure (SMILES): CC1(C)Cc2cc(C(=O)O)ccc2NC1c1ccccc1NS(=O)(=O)c1ccccc1F (stereo not shown) [Example 219, 2-(2-(2-Fluorophenylsulfonamido)phenyl)-3,3-dimethyl-1,2,3,4-tetrahydroquinoline-6-carboxylic acid]
E30: 2.57

Structure (SMILES): CN1CCC(NC(=O)c2cccc(C3Nc4c(cccc4C(=O)O)CC3(C)C)c2)C1 (stereo not shown) [Example 224, 3,3-Dimethyl-2-(3-(1-methylpyrrolidin-3-ylcarbamoyl)phenyl)-1,2,3,4-tetrahydroquinoline-8-carboxylic acid]
E30: 1.43

Structure (SMILES): CN1CCC(NC(=O)c2cccc(C3Nc4ccc(Cl)cc4CC3(C)C)c2)C1 (stereo not shown) [Example 225, 3-(6-Chloro-3,3-dimethyl-1,2,3,4-tetrahydroquinolin-2-yl)-N-(1-methylpyrrolidin-3-yl)benzamide]
E30: 1.64

Structure (SMILES): CC1(C)Cc2cc(C(=O)O)ccc2NC1c1ccccc1NC(=O)c1ccccn1 (stereo not shown) [Example 232, 3,3-Dimethyl-2-(2-(picolinamido)phenyl)-1,2,3,4-tetrahydroquinoline-6-carboxylic acid]
E30: 1.28

Structure (SMILES): CC(C)(Oc1cccc(C2Nc3ccc(C(=O)O)cc3CC2(C)C)c1)C(=O)O (stereo not shown) [Example 233, 2-(3-(2-Carboxypropan-2-yloxy)phenyl)-3,3-dimethyl-1,2,3,4-tetrahydroquinoline-6-carboxylic acid]
E30: 1.29
